Measurements as given in patent US20130252923A1, “SKIN-BEAUTIFYING AGENT” (MEGMILK SNOW BRAND CO., LTD., priority 2007, published 2013).

Experiments:
[1] = system: hairless mice (Hos: HR-1); experiment: Water content of the skin (Corneometer) after oral administration, animal test; assay type: in vivo; conditions: three weeks, positive control
Experimental: (§1) A skin-beautifying effect of milk-derived phospholipid was evaluated using the compositions containing milk-derived phospholipid obtained in Examples 1 and 2. In experiments 13-week-old hairless mice (Hos: HR-1) were used. […] A water content and TEWL of the skin of the tail and the base of the tail of the mice were measured at the initiation of the test and the completion of the test. Values obtained at the completion of the test were calculated by setting each value obtained at the initiation of the test as 100, and the obtained values were provided as a rate of increase. A water content of the skin and TEWL were measured with a Corneometer and a Tewameter manufactured by Courage +Khazaka electronic GmbH, respectively.

[2] = system: hairless mice (Hos: HR-1); experiment: TEWL of the skin (Tewameter) after oral administration, animal test; assay type: in vivo; conditions: three weeks, positive control
Experimental: as §1

[3] = 3 mg sphingomyelin per kg body weight, oral once daily, value at initiation = 100

sphingomyelin
Rate of water content increase [1, 3]: 124% | water content of the skin, times as much as the water content of the skin of group A ([1]; 3 mg/kg sphingomyelin solely): 1.25 times | Rate of TEWL increase [2, 3]: 86% | TEWL, times that of group A ([2]; 3 mg/kg sphingomyelin solely): 0.85 times
